Test results reported in the supplement of paper PMC8920030.

Assays:
Conditions in all cases: growth mode: biofilm, 24 h; exposure time: 24 h
[1] = compound: T1, CCC(C)CCCC(=O)N[C@@H](CCN)C(=O)N[C@H](C(=O)N[C@@H](CCN)C(=O)N[C@H]1CCNC(=O)[C@H]([C@@H](C)O)NC(=O)[C@H](CCN)NC(=O)[C@H](CCN)NC(=O)[C@H](CC(C)C)NC(=O)[C@@H](CC(C)C)NC(=O)[C@H](CCN)NC1=O)[C@@H](C)O [colistin]; assay: minimum concentration eradicating biofilm below detection limit (MCK-E); higher = more biofilm tolerance
Description: (§1)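 Clinical P. aeruginosa isolates were grown as static biofilms for 24 h at 37 °C in LB in half-area 96-well plates, then exposed for 24 h to colistin at 1, 4, 16, 64, 256 or […]. Surviving CFU were counted by spotting serial dilutions. MCK is the lowest tested concentration giving the stated log reduction in CFU versus an untreated control; '>1024' means the reduction was not reached at the top dose, and 1 is the lowest dose tested (≤1).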

[2] = compound: T1, colistin; assay: minimum concentration of killing, 4-log CFU reduction of biofilm (MCK99.99); higher = more biofilm tolerance
Description: as §1

[3] = compound: T1, colistin; assay: minimum concentration of killing, 1-log CFU reduction of biofilm (MCK90); higher = more biofilm tolerance
Description: as §1

[4] = compound: T2, NC[C@H]1O[C@H](O[C@H]2[C@H](O)[C@@H](O[C@H]3O[C@H](CO)[C@@H](O)[C@H](N)[C@H]3O)[C@H](N)C[C@@H]2N)[C@H](N)C[C@@H]1O [tobramycin]; assay: minimum concentration eradicating biofilm below detection limit (MCK-E); higher = more biofilm tolerance
Description: as §1, with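 “tobramycin” for “colistin”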

[5] = compound: T2, tobramycin; assay: minimum concentration of killing, 1-log CFU reduction of biofilm (MCK90); higher = more biofilm tolerance
Description: as §1, with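 “tobramycin” for “colistin”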

[6] = compound: T1, colistin; assay: minimum concentration of killing, 2-log CFU reduction of biofilm (MCK99); higher = more biofilm tolerance
Description: as §1

[7] = compound: T2, tobramycin; assay: minimum concentration of killing, 4-log CFU reduction of biofilm (MCK99.99); higher = more biofilm tolerance
Description: as §1, with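 “tobramycin” for “colistin”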

[8] = compound: T2, tobramycin; assay: minimum concentration of killing, 2-log CFU reduction of biofilm (MCK99); higher = more biofilm tolerance
Description: as §1, with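 “tobramycin” for “colistin”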

Row | Test System | minimum concentration eradicating biofilm below detection limit [1] [µg/mL] | minimum concentration of killing [2] [µg/mL] | minimum concentration of killing [3] [µg/mL] | minimum concentration eradicating biofilm below detection limit [4] [µg/mL] | minimum concentration of killing [5] [µg/mL] | minimum concentration of killing [6] [µg/mL] | minimum concentration of killing [7] [µg/mL] | minimum concentration of killing [8] [µg/mL]
1 | Pseudomonas aeruginosa clinical isolate ESP066 | 1020 | 1020 | 256 | > 1020 | 256 | 256 | > 1020 | 256
2 | Pseudomonas aeruginosa clinical isolate ESP067 | 256 | 256 | 64 | 1020 | 4 | 256 | 256 | 16
3 | Pseudomonas aeruginosa clinical isolate ESP070 | 1020 | 1020 | 64 | > 1020 | 1020 | 256 | > 1020 | 1020
4 | Pseudomonas aeruginosa clinical isolate ESP072 | 256 | 256 | 64 | 256 | 4 | 256 | 256 | 16
5 | Pseudomonas aeruginosa clinical isolate ESP073 | 256 | 256 | 16 | 256 | 16 | 256 | 64 | 16
6 | Pseudomonas aeruginosa clinical isolate ESP075 | 256 | 256 | 256 | 256 | ≤ 1 | 256 | 64 | 4
7 | Pseudomonas aeruginosa clinical isolate ESP076 | 256 | 256 | 256 | > 1020 | > 1020 | 256 | > 1020 | > 1020
8 | Pseudomonas aeruginosa clinical isolate ESP077 | 256 | 256 | 64 | > 1020 | 1020 | 64 | 1020 | 1020
9 | Pseudomonas aeruginosa clinical isolate ESP081 | 256 | 256 | 256 | 64 | 4 | 256 | 64 | 16
10 | Pseudomonas aeruginosa clinical isolate ESP083 | 256 | 256 | 4 | > 1020 | > 1020 | 64 | > 1020 | > 1020
11 | Pseudomonas aeruginosa clinical isolate ESP088 | 256 | 256 | 64 | > 1020 | 256 | 64 | > 1020 | 1020
12 | Pseudomonas aeruginosa clinical isolate ESP091 | 256 | 256 | 256 | 1020 | 64 | 256 | 1020 | 64
13 | Pseudomonas aeruginosa clinical isolate ESP093 | 256 | 256 | 16 | > 1020 | 4 | 64 | > 1020 | 1020
14 | Pseudomonas aeruginosa clinical isolate F1688 | 256 | 256 | 16 | 256 | 4 | 256 | 256 | 4
15 | Pseudomonas aeruginosa clinical isolate F1706 | 256 | 256 | 256 | 256 | 4 | 256 | 16 | 16
16 | Pseudomonas aeruginosa clinical isolate F1720 | 256 | 256 | ≤ 1 | > 1020 | 4 | 64 | 1020 | 64
17 | Pseudomonas aeruginosa clinical isolate F1727 | 256 | 256 | 256 | 1020 | 4 | 256 | 1020 | 4
18 | Pseudomonas aeruginosa clinical isolate F1757 | 256 | 64 | 64 | > 1020 | ≤ 1 | 64 | > 1020 | 64
